Measured values reported in ChEMBL document CHEMBL3044672, “N9- and N7-(Chloromethyl Phenymethyl)Chloropurine Derivatives from , '-Dichloroxylenes: Synthesis and Anticancer Activity” (2005).

What was measured:
Format in all cases: functional
COLO 205 = test: Cytotoxicity against Homo sapiens (human) COLO205 cells after 48 hr by sulforhodamine B assay; conditions: COLO 205, 48 h
SK-OV-3 = test: Cytotoxicity against Homo sapiens (human) SKOV3 cells after 48 hr by sulforhodamine B assay; conditions: SK-OV-3, 48 h
SK-MEL-28 = test: Cytotoxicity against Homo sapiens (human) SK-MEL-28 cells after 48 hr by sulforhodamine B assay; conditions: SK-MEL-28, 48 h
U-251 = test: Cytotoxicity against Homo sapiens (human) U251 cells after 48 hr by sulforhodamine B assay; conditions: U-251, 48 h
MCF7 = test: Cytotoxicity against Homo sapiens (human) MCF7 cells after 48 hr by sulforhodamine B assay; conditions: MCF7, 48 h
ACHN = test: Cytotoxicity against Homo sapiens (human) ACHN cells after 48 hr by sulforhodamine B assay
786-0 = test: Cytotoxicity against Homo sapiens (human) 786-0 cells after 48 hr by sulforhodamine B assay; conditions: 786-0, 48 h
RXF 393 = test: Cytotoxicity against Homo sapiens (human) RXF393 cells after 48 hr by sulforhodamine B assay; conditions: RXF 393, 48 h
SN12C = test: Cytotoxicity against Homo sapiens (human) SN12C cells after 48 hr by sulforhodamine B assay
HOP-62 = test: Cytotoxicity against Homo sapiens (human) HOP62 cells after 48 hr by sulforhodamine B assay; conditions: HOP-62, 48 h
HOP-92 = test: Cytotoxicity against Homo sapiens (human) HOP92 cells after 48 hr by sulforhodamine B assay; conditions: HOP-92, 48 h
BT-549 = test: Cytotoxicity against Homo sapiens (human) BT549 cells after 48 hr by sulforhodamine B assay; conditions: BT-549, 48 h
NCI-H460 [1] = test: Cytotoxicity against Homo sapiens (human) NCI-H460 cells assessed as cell growth at 10^-4 M after 48 hr by Alamar blue assay; conditions: NCI-H460, 48 h, read-out: Activity
CCRF-CEM = test: Cytotoxicity against Homo sapiens (human) CCRF-CEM cells after 48 hr by sulforhodamine B assay
T47D = test: Cytotoxicity against Homo sapiens (human) T47D cells after 48 hr by sulforhodamine B assay
MDA-MB-231 = test: Cytotoxicity against Homo sapiens (human) MDA-MB-231 cells after 48 hr by sulforhodamine B assay; conditions: MDA-MB-231, 48 h
MOLT-4 = test: Cytotoxicity against Homo sapiens (human) MOLT4 cells after 48 hr by sulforhodamine B assay; conditions: MOLT-4, 48 h
NCI-H522 = test: Cytotoxicity against Homo sapiens (human) NCI-H522 cells after 48 hr by sulforhodamine B assay; conditions: NCI-H522, 48 h
PC-3 = test: Cytotoxicity against Homo sapiens (human) PC3 cells after 48 hr by sulforhodamine B assay; conditions: PC-3, 48 h
NCI-H226 = test: Cytotoxicity against Homo sapiens (human) NCI-H226 cells after 48 hr by sulforhodamine B assay; conditions: NCI-H226, 48 h
SF-268 [2] = test: Cytotoxicity against Homo sapiens (human) SF268 cells after 48 hr by sulforhodamine B assay; conditions: SF-268, 48 h
SF-268 [3] = test: Cytotoxicity against Homo sapiens (human) SF268 cells assessed as cell growth at 10^-4 M after 48 hr by […] assay; conditions: SF-268, 48 h, read-out: Activity
Hs-578T = test: Cytotoxicity against Homo sapiens (human) Hs 578T cells after 48 hr by sulforhodamine B assay
UO-31 = test: Cytotoxicity against Homo sapiens (human) UO31 cells after 48 hr by sulforhodamine B assay; conditions: UO-31, 48 h
KM12 = test: Cytotoxicity against Homo sapiens (human) KM12 cells after 48 hr by sulforhodamine B assay; conditions: KM12, 48 h
MDA-MB-435 = test: Cytotoxicity against Homo sapiens (human) MDA-MB-435 cells after 48 hr by sulforhodamine B assay; conditions: MDA-MB-435, 48 h
[4] = Cytotoxicity against Homo sapiens (human) NCI-ADR-RES cells after 48 hr by sulforhodamine B assay
NCI-H322M = test: Cytotoxicity against Homo sapiens (human) NCI-H322M cells after 48 hr by sulforhodamine B assay
HCT-15 = test: Cytotoxicity against Homo sapiens (human) HCT15 cells after 48 hr by sulforhodamine B assay; conditions: HCT-15, 48 h
UACC-62 = test: Cytotoxicity against Homo sapiens (human) UACC62 cells after 48 hr by sulforhodamine B assay; conditions: UACC-62, 48 h
NCI-H23 = test: Cytotoxicity against Homo sapiens (human) NCI-H23 cells after 48 hr by sulforhodamine B assay; conditions: NCI-H23, 48 h
NCI-H460 [5] = test: Cytotoxicity against Homo sapiens (human) NCI-H460 cells after 48 hr by sulforhodamine B assay; conditions: NCI-H460, 48 h
[6] = read-out: LC50 (the source's name)

## ClCc1ccccc1Cn1cnc2ncnc(Cl)c21
COLO 205
  GI50: 4.36 µM
  TGI: > 100 µM
COLO 205; [6]
  CC50: > 100 µM
SK-OV-3
  GI50: 7.58 µM
  LC50: 85.1 µM
  TGI: 26.9 µM
SK-MEL-28
  GI50: 4.46 µM
  LC50 (concentration killing 50% of cells): 79.4 µM
  TGI: 18.6 µM
U-251
  GI50: 1.9 µM
  LC50 (concentration killing 50% of cells): 10.2 µM
  TGI: 4.36 µM
MCF7
  GI50: 3.63 µM
  LC50 (concentration killing 50% of cells): > 100 µM
  TGI: > 100 µM
ACHN
  GI50: 1.99 µM
  TGI: 4.26 µM
ACHN; [6]
  CC50: 9.12 µM
786-0
  GI50: 3.98 µM
  LC50: 47.9 µM
  TGI: 12.9 µM
RXF 393
  GI50: 1.65 µM
  TGI: 6.54 µM
RXF 393; [6]
  CC50: > 100 µM
SN12C
  GI50: 2.95 µM
  LC50 (50% lethal concentration): 42.6 µM
  TGI: 8.51 µM
HOP-62
  GI50: 11.2 µM
  TGI: 28.8 µM
HOP-62; [6]
  CC50: 75.9 µM
HOP-92
  GI50: 4.36 µM
  TGI: 12.9 µM
HOP-92; [6]
  CC50: 51.3 µM
BT-549
  GI50: 2.45 µM
  LC50 (50% lethal concentration): 25.1 µM
  TGI: 6.02 µM
NCI-H460 [1]
  growth at 100 µM: 0%
CCRF-CEM
  GI50: 1.44 µM
  TGI: 3.54 µM
CCRF-CEM; [6]
  CC50: 8.7 µM
T47D
  GI50: 1.99 µM
  LC50: 4.26 µM
  TGI: 4.26 µM
MDA-MB-231
  GI50: 2.75 µM
  LC50: 25.1 µM
  TGI: 6.91 µM
MOLT-4
  GI50: 1.65 µM
  TGI: 4.26 µM
MOLT-4; [6]
  CC50: 16.6 µM
NCI-H522
  GI50: 2.81 µM
  TGI: 75.9 µM
NCI-H522; [6]
  CC50: > 100 µM
PC-3
  GI50: 4.46 µM
  LC50 (concentration causing 50% cell kill): 74.1 µM
  TGI: 19.1 µM
NCI-H226
  GI50: 3.38 µM
  TGI: 7.94 µM
NCI-H226; [6]
  CC50: > 100 µM
SF-268 [2]
  GI50: 4.78 µM
  TGI: 24.5 µM
SF-268 [2]; [6]
  CC50: > 100 µM
SF-268 [3]
  growth at 100 µM: 0%
Hs-578T
  GI50: 2.29 µM
  LC50: 66.1 µM
  TGI: 6.02 µM
UO-31
  GI50: 3.23 µM
  LC50 (concentration causing 50% net cell kill): 77.6 µM
  TGI: 10.7 µM
KM12
  GI50: 3.63 µM
  TGI: 11.2 µM
KM12; [6]
  CC50: 38 µM
MDA-MB-435
  GI50: 1.94 µM
  LC50: 7.58 µM
  TGI: 3.8 µM
[4]
  GI50: 2.08 µM
  LC50 (concentration killing 50% of cells): 6.54 µM
  TGI: 4.46 µM
NCI-H322M
  GI50: 4.67 µM
  TGI: 15.8 µM
NCI-H322M; [6]
  CC50: 40.7 µM
HCT-15
  GI50: 1.38 µM
  TGI: 2.88 µM
HCT-15; [6]
  CC50: 6.16 µM
UACC-62
  GI50: 1.86 µM
  LC50 (concentration causing 50% net cell kill): 19.1 µM
  TGI: 5.12 µM
NCI-H23
  GI50: 5.01 µM
  TGI: 17.4 µM
NCI-H23; [6]
  CC50: 49 µM
NCI-H460 [5]
  GI50: 13.5 µM
  TGI: 60.2 µM
NCI-H460 [5]; [6]
  CC50: > 100 µM
